The record followed here is PubChem BioAssay (NCI).

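Cultured in 96-well plates, cells were exposed to test compound for 48 hours across five concentrations. TGI marks complete inhibition of growth.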

Common to all, as to test: inhibition of tumour cell growth, NCI panel, 48 h
The test system of assay [1] is SF-539 CNS.
Assay [2] deals with MDA-MB-435.
For assay [3], the system named is SK-OV-3 ovarian.
Assay [4] has as its system SF-295 CNS.
The test system of assay [5] is M14 melanoma.
The subject of assay [6] is OVCAR-3 ovarian.
For assay [7], the system named is A549 NSCLC.
Assay [8] deals with CCRF-CEM leukemia.
The subject of assay [9] is BT-549 breast.
Assay [10] has as its system HCC-2998 colon.

For the molecule `O=C(OCc1ccccc1)N1CCNCCNCCN(C(=O)OCc2ccccc2)CCNCC1`, the TGI is 32.8 µM in [1]; 29.6 µM in assay [2]; above 100 µM in [3]; 33.7 µM in assay [4]; 30.4 µM in [5]; above 100 µM in assay [6]. Besides, the values for the TGI in assay [7], in assay [8] and in assay [9] were above 100 µM, 65.9 µM and above 100 µM, respectively.
With `Cc1c2cccc-2ccc2c3ccccc3n(C(=O)c3ccc(Cl)cc3)c12`, the TGI in assay [1], in [2], in [3], in assay [4], in [5] and in assay [6] was above 100 µM each time. Moreover, the TGI in assay [7], in assay [8] and in assay [9] was above 100 µM in each case.
Take `N/C(=N\N=C\c1ncccc1O)NO`: the TGI in assay [1] was 59.1 µM; in assay [3], above 84.1 µM; in assay [4], above 77.8 µM; in assay [6], above 100 µM; in [7], above 100 µM; in assay [8], above 47.6 µM. Moreover, in assay [10], the TGI was above 100 µM.
With `CCOC(=O)CCC(C(=O)OCC)n1nnc2cc(Nc3c(C)[n+]([O-])c4cc(F)c(OCC)cc4[n+]3[O-])ccc21` (stereo unspecified), the TGI in assay [1], in [2], in assay [3], in assay [4], in [5] and in assay [6] was above 100 µM in each case. For the same molecule, the TGI in assay [7], in [8] and in assay [9] was above 100 µM each time.
On to `O=C(c1ccc(Cl)cc1)N1CCN=C1c1cc2ccccc2c2ccccc12`, for which the TGI was 29.1 µM in [1]; 31.9 µM in assay [2]; 29.6 µM in assay [3]; 30.5 µM in assay [4]; above 100 µM in assay [5]; 35.3 µM in assay [6]. Further, the TGI in assay [7] was found to be 31 µM; in assay [8], 81.1 µM; in [9] it was 33.6 µM.
For the molecule `CCNc1cc2c3c(c1)CCN3CCC2`, the TGI in [1], in [2], in assay [3], in assay [4], in [5] and in [6] was above 10 µM each time. Also, the TGI in assay [7], in assay [8] and in [10] was above 10 µM each time.
For `O=c1c2ccccc2nc2ccc3c(Cl)[nH][nH]c3c12`, the TGI in assay [3], in [4], in [5], in assay [6], in assay [7] and in [8] was above 100 µM in each case. This molecule returned a TGI in assay [10] above 100 µM.
On to `Cc1c2ccncc2c(C)c2c1[nH]c1ccc(OCCN(C)C)cc12`, for which the TGI in [1] is 2.38 µM; in assay [3], 1.84 µM; in assay [4], 0.505 µM; in assay [6], 1.07 µM; in [7], 0.844 µM; in [8], 1.3 µM. In assay [10], this molecule registered a TGI of 0.656 µM.
With `COc1nc(C#CC2CCCCC2)nc(OC)n1`, the TGI in assay [1] is 6.31 µM; in assay [2] it was 10.1 µM; in [3], above 100 µM; in assay [4], 18 µM; in assay [5], 10.6 µM; in assay [6], 8.97 µM. Also, the TGI in assay [7] was found to be 16.4 µM; in [8], 11.7 µM; in assay [9] it was 14.6 µM.
In the case of `Clc1cc(Cl)ncn1`, the TGI in assay [1], in assay [2], in [3], in assay [4], in [5] and in assay [6] was above 100 µM in each case. The TGI in [7], in assay [8] and in [10] was above 100 µM each time.
Take `Cc1c([C@H](C)[C@@H]2NC[C@@H](C)C[C@H]2O)ccc2c1C[C@H]1[C@H]2CC=C2C[C@@H](O)CC[C@@]21C`: the TGI in assay [2] was found to be 26.4 µM; in assay [3] it was 76.9 µM; in [4], 40.8 µM; in assay [5], 31.4 µM; in assay [6], 41.5 µM; in assay [7], 47.9 µM. Further, the TGI in assay [8] came out at 38.4 µM; in assay [10], 30 µM; in assay [9], 54.5 µM.
For the molecule `N#Cc1c(N)nc2c3c1NC(=O)C(C(N)=O)C3c1ccccc1O2` (stereo unspecified), the TGI in assay [1], in assay [2], in assay [3], in [4], in [5] and in [6] was above 100 µM throughout. Besides, the TGI in assay [7], in [8] and in assay [10] was above 100 µM each time.
As to `O=c1[nH]c(=O)n(C2OC(CO)C(O)C2O)cc1OCCCc1ccccc1` (stereo unspecified), the TGI in assay [1], in [2], in assay [3], in assay [4], in assay [5] and in assay [6] was above 100 µM in each case. For the same molecule, the TGI in assay [7], in assay [8] and in [10] was above 100 µM each time.
With `O=C(O)c1ccccc1C1c2ccccc2Oc2ccccc21`, the TGI was above 100 µM in [2]; above 100 µM in assay [4]; above 100 µM in [5]; 90.1 µM in [6]; above 100 µM in assay [7]; above 100 µM in [8]. In addition, the TGI in assay [9] is above 100 µM.
Consider `CC(=O)C(C)(C)CCC(C)(C)C(C)=O`, for which the TGI in assay [1], in assay [3], in assay [4], in [5], in assay [7] and in assay [8] was above 100 µM each time. Further, the TGI in assay [10] and in [9] was above 100 µM each time.
